These results are taken from ChEMBL document CHEMBL1201862, “PubChem BioAssay data set” (2004).

Activity calls are given as the source filed them. Bounds are passed on as bounds.

Experiment [1] concerns the target Cyclin-dependent kinase 8 (Homo sapiens, UniProt P49336). The experiment in a line: Navigating the Kinome. Panel member name: CDK8. It is filed as functional.
In experiment [2] the target is MAP/microtubule affinity-regulating kinase 3 (Homo sapiens, UniProt P27448). The class given is functional.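 Note: MARK3 affinity measured as one member of a kinome panel.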
Experiment [3] concerns the target Macrophage-stimulating protein receptor (Homo sapiens, UniProt Q04912). Description: Navigating the Kinome. Panel member name: MST1R. The class given is functional.
The target in experiment [4] is Dual specificity protein kinase CLK4 (Homo sapiens, UniProt Q9HAZ1). It is filed as functional.
Experiment [5] addresses Casein kinase I isoform alpha (Homo sapiens, UniProt P48729). The class given is functional.
In experiment [6] the target is Tyrosine-protein kinase receptor TYRO3 (Homo sapiens, UniProt Q06418). It is filed as functional.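 Note: TYRO3 value obtained as one member of a kinome-wide profiling panel.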
The target in experiment [7] is Serine/threonine-protein kinase pim-1 (Homo sapiens, UniProt P11309). It is filed as functional.
Experiment [8] has as its target Activin receptor type-1 (Homo sapiens, UniProt Q04771). The experiment in a line: Navigating the Kinome. Panel member name: ACVR1. The class given is functional.
For experiment [9], the target named is Ribosomal protein S6 kinase alpha-3 (Homo sapiens, UniProt P51812). The class given is functional.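 Note: measured within a kinome-wide profiling panel.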
Experiment [10] concerns the target Rho-associated protein kinase 1 (Homo sapiens, UniProt Q13464). It is filed as functional.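 Note: measured within a broad kinome-wide panel profiling many kinases.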
Experiment [11] concerns the target Dual specificity tyrosine-phosphorylation-regulated kinase 1B (Homo sapiens, UniProt Q9Y463). The experiment in a line: Navigating the Kinome. Panel member name: DYRK1B. It is filed as functional.
Experiment [12] addresses Dual specificity protein kinase CLK2 (Homo sapiens, UniProt P49760). The class given is functional.
The target of experiment [13] is 5'-AMP-activated protein kinase catalytic subunit alpha-1 (Homo sapiens, UniProt Q13131). It is filed as functional.
Experiment [14] concerns the target Vascular endothelial growth factor receptor 1 (Homo sapiens, UniProt P17948). It is filed as functional.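 Note: measured within a kinome-wide profiling panel, FLT1 as the panel member.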
Experiment [15] deals with cAMP-dependent protein kinase catalytic subunit PRKX (Homo sapiens, UniProt P51817). It is filed as functional.
The target in experiment [16] is Mitogen-activated protein kinase 10 (Homo sapiens, UniProt P53779). The experiment in a line: Navigating the Kinome. Panel member name: MAPK10. It is filed as functional.
Experiment [17] concerns the target Leucine-rich repeat serine/threonine-protein kinase 2 (Homo sapiens, UniProt Q5S007). It is filed as functional.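 Note: value from a broad kinome-wide panel profiling study in which LRRK2 was one of the kinases tested.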
In experiment [18] the target is Inhibitor of nuclear factor kappa-B kinase subunit epsilon (Homo sapiens, UniProt Q14164). Description: Navigating the Kinome. Panel member name: IKBKE. It is filed as functional.
Experiment [19] concerns the target Mast/stem cell growth factor receptor Kit (Homo sapiens, UniProt P10721). The class given is functional.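 Note: KIT entry within a kinase panel assay.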
Experiment [20] addresses Activated CDC42 kinase 1 (Homo sapiens, UniProt Q07912). Description: Navigating the Kinome. Panel member name: ACK1. The class given is functional.
The target of experiment [21] is Leukocyte tyrosine kinase receptor (Homo sapiens, UniProt P29376). Description: Navigating the Kinome. Panel member name: LTK. It is filed as functional.
Experiment [22] has as its target Vascular endothelial growth factor receptor 2 (Homo sapiens, UniProt P35968). It is filed as functional.
Experiment [23] has as its target Mitogen-activated protein kinase kinase kinase kinase 4 (Homo sapiens, UniProt O95819). The class given is functional.
In experiment [24] the target is Proto-oncogene tyrosine-protein kinase receptor Ret (Homo sapiens, UniProt P07949). The class given is functional.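 Note: measured within a kinome-wide profiling panel, RET as the panel member.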
In experiment [25] the target is Tyrosine-protein kinase JAK3 (Homo sapiens, UniProt P52333). The class given is functional.
The target of experiment [26] is Dual specificity mitogen-activated protein kinase kinase 1 (Homo sapiens, UniProt Q02750). The experiment in a line: Navigating the Kinome. Panel member name: MAP2K1. It is filed as functional.
Experiment [27] has as its target ALK tyrosine kinase receptor (Homo sapiens, UniProt Q9UM73). It is filed as functional.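 Note: ALK tested as one member of a kinase panel screen.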
The target of experiment [28] is G protein-coupled receptor kinase 5 (Homo sapiens, UniProt P34947). Description: Navigating the Kinome. Panel member name: GPRK5. The class given is functional.
Experiment [29] addresses Fibroblast growth factor receptor 1 (Homo sapiens, UniProt P11362). The class given is functional.
The target in experiment [30] is Tyrosine-protein kinase JAK2 (Homo sapiens, UniProt O60674). It is filed as functional.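 Note: JAK2 tested as one member of a kinase panel.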
Experiment [31] deals with Dual specificity tyrosine-phosphorylation-regulated kinase 1A (Homo sapiens, UniProt Q13627). The class given is functional.
Experiment [32] addresses Serine/threonine-protein kinase TAO1 (Homo sapiens, UniProt Q7L7X3). It is filed as functional.
For experiment [33], the target named is DNA dC->dU-editing enzyme APOBEC-3A (Homo sapiens, UniProt P31941). The experiment in a line: SAR analysis of small molecule inhibitors of APOBEC3A DNA Deaminase via a fluorescence-based single-stranded DNA deaminase assay - Set 2. The conditions noted are these: read-out: IC50_Mean. It is filed as functional.
Experiment [34] deals with DNA dC->dU-editing enzyme APOBEC-3G (Homo sapiens, UniProt Q9HC16). The experiment in a line: SAR analysis of small molecule inhibitors of APOBEC3G DNA Deaminase via a fluorescence-based single-stranded DNA deaminase assay - Set 2. It is filed as functional. The conditions noted are these: read-out: IC50_Mean.
Experiment [35] is described as follows: THP-1 cell cytotoxicity, cytotoxicity control, set 5 (AID 588443). It is filed as functional.
Experiment [36] is described as follows: A High Throughput Confirmatory Assay used to Identify Novel Compounds that Inhibit Mycobacterium Tuberculosis in the absence of Glycerol using Purified and Synthesized Compounds (3). It is filed as functional.
The nature of experiment [37]: HepG2 cell cytotoxicity, cytotoxicity control, set 5 (AID 588441). Conditions: Mycobacterium tuberculosis. The class given is functional.
The nature of experiment [38]: Vero cell viability loss – purified and synthesized compounds, set 6, cytotoxicity control for M. tuberculosis inhibitor project, dose response (AID 588445). Conditions: Mycobacterium tuberculosis. The class given is functional.
Experiment [39] deals with Melanin-concentrating hormone receptor 1 (Homo sapiens, UniProt Q99705). Description: Late-stage fluorescence-based counterscreen for antagonists of the G-protein coupled receptor 7 (GPR7): cell-based dose response assay to identify antagonists of the melanin-concentrating hormone receptor 1 (MCHR1) Set 6. It is filed as functional.
In experiment [40] the target is T1, Neuropeptides B/W receptor type 1 (Homo sapiens, UniProt P48145).
T1 sequence (P48145 whole entry): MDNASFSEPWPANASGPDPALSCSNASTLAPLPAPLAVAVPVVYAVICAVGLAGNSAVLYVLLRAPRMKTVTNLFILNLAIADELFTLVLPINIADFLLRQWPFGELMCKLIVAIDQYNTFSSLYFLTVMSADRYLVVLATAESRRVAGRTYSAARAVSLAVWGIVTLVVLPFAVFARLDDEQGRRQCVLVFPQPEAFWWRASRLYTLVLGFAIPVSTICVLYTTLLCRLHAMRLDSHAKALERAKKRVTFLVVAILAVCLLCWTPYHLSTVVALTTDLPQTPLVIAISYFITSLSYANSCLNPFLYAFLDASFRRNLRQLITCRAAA
The experiment in a line: human NPBW1 receptor blockade, IC50 – cell-based, fluorescence, dose response, set 6, late-stage follow-up (AID 588583). It is filed as functional.

A short description of experiment [41]: general mammalian cell viability loss – inhibitor set, cherry-pick, set 2, cytotoxicity control for miR-122 modulator project, dose response (AID 720697). It is filed as functional, cell-based.
For experiment [42], the target named is Glycogen synthase kinase-3 alpha (Homo sapiens, UniProt P49840). The experiment in a line: GSK3A enzyme blockers, homolog specificity check – biochemical, microfluidics, dry powder samples, set 2, selectivity assay for GSK3beta inhibitor project, dose response (AID 623978). It is filed as functional.
For experiment [43], the target named is Glycogen synthase kinase-3 beta (Homo sapiens, UniProt P49841). Description: inhibition of human GSK3B activity – biochemical, microfluidics, dry powder samples, set 2, dose response (AID 623989). The class given is functional.

Sequence of Dual specificity protein kinase CLK2 (P49760 whole entry): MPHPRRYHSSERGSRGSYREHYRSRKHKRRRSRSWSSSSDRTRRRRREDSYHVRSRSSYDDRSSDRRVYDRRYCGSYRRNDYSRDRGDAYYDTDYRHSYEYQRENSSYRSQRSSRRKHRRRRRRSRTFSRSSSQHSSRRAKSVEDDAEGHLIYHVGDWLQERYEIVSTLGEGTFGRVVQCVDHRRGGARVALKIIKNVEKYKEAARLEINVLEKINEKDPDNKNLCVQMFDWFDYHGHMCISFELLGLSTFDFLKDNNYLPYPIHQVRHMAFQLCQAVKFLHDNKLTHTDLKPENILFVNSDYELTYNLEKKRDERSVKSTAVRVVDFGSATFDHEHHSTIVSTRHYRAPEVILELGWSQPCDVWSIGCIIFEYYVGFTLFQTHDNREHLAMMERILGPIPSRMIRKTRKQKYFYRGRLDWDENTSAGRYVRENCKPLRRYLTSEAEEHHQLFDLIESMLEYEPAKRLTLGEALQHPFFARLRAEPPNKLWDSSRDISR
Sequence of Dual specificity protein kinase CLK4 (Q9HAZ1 whole entry, canonical isoform): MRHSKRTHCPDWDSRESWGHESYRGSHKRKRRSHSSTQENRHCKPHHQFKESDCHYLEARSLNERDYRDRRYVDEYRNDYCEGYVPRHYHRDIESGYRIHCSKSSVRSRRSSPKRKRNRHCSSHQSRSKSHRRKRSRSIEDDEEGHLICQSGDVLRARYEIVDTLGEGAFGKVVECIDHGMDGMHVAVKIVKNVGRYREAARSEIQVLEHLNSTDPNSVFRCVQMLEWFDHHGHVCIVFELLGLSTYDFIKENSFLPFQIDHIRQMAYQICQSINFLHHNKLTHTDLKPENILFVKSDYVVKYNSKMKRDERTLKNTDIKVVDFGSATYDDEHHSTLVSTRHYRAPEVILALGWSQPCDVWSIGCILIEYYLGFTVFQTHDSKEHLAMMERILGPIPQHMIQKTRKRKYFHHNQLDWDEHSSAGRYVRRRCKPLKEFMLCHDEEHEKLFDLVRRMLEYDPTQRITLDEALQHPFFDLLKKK
Sequence of Mitogen-activated protein kinase kinase kinase kinase 4 (O95819 whole entry): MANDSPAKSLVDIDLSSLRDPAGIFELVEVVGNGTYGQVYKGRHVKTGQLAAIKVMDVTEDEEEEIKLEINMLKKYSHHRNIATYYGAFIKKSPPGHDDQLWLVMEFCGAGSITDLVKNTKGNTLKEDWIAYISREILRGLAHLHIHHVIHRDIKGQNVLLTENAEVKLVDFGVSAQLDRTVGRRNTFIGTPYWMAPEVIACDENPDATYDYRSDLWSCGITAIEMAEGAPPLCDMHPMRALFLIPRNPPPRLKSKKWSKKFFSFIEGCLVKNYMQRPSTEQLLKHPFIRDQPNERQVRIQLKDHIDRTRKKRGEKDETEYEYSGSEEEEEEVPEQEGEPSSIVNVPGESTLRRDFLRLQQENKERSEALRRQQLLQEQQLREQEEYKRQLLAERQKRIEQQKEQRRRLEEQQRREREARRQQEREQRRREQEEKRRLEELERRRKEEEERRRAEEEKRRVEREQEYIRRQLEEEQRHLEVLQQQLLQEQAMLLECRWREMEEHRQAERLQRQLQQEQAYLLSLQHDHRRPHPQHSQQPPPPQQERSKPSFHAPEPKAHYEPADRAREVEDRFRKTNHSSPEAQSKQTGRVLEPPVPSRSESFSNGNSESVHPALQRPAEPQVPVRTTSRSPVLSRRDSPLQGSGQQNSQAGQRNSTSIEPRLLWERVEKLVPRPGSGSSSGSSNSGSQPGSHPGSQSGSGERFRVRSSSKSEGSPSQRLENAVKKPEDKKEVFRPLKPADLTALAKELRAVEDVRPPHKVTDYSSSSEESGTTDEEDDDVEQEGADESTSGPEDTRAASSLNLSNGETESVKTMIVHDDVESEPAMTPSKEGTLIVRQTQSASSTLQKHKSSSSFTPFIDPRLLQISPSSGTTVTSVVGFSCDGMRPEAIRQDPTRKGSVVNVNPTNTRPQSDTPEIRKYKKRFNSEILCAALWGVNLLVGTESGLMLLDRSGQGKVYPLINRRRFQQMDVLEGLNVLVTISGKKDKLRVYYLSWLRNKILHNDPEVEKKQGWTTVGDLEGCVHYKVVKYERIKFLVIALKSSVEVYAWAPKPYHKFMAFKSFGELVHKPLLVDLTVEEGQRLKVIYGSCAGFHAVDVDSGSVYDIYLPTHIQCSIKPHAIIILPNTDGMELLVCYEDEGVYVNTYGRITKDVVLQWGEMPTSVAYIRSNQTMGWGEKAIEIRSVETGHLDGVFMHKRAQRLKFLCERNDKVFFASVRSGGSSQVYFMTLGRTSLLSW
Sequence of Activin receptor type-1 (Q04771 whole entry): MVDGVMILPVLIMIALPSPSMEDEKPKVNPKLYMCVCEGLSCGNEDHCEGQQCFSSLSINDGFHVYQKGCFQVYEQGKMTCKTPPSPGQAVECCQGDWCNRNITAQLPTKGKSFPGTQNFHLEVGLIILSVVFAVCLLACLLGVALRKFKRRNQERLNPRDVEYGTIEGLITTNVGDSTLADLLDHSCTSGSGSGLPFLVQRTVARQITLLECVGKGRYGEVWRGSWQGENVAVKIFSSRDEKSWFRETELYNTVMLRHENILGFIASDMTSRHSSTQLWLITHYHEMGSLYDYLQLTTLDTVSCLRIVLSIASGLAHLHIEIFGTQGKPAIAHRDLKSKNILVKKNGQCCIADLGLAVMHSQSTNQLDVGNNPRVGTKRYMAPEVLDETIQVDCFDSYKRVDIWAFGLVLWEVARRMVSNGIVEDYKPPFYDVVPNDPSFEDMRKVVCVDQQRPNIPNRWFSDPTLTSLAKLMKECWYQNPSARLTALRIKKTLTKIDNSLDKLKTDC
Sequence of Tyrosine-protein kinase JAK3 (P52333 whole entry): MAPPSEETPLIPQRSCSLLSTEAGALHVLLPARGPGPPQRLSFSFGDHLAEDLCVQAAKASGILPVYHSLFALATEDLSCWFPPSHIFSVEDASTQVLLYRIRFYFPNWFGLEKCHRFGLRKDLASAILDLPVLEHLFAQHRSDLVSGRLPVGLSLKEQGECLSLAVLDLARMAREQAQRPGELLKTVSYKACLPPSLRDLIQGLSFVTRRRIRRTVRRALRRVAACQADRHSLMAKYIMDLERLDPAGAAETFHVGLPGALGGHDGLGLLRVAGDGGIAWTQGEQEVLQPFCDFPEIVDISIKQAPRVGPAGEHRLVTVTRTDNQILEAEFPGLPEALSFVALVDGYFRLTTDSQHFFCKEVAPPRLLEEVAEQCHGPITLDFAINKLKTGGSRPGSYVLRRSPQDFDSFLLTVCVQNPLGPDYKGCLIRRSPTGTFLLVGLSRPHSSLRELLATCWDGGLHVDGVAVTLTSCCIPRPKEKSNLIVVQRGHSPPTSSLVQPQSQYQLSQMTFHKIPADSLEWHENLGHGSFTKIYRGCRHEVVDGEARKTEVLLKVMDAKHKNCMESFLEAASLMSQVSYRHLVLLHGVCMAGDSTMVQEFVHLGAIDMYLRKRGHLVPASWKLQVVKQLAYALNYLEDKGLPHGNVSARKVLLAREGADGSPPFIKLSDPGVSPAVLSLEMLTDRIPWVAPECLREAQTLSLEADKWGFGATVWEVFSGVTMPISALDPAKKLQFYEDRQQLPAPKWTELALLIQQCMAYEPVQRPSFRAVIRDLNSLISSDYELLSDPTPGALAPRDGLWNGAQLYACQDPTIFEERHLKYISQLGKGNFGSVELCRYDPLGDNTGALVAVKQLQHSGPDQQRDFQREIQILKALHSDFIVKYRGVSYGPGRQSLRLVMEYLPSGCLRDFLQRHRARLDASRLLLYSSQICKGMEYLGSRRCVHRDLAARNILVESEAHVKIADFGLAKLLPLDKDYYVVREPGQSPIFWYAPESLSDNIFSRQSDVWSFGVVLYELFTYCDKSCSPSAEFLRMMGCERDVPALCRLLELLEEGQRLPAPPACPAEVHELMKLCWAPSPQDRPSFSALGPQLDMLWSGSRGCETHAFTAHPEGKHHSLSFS
Sequence of 5'-AMP-activated protein kinase catalytic subunit alpha-1 (Q13131 whole entry): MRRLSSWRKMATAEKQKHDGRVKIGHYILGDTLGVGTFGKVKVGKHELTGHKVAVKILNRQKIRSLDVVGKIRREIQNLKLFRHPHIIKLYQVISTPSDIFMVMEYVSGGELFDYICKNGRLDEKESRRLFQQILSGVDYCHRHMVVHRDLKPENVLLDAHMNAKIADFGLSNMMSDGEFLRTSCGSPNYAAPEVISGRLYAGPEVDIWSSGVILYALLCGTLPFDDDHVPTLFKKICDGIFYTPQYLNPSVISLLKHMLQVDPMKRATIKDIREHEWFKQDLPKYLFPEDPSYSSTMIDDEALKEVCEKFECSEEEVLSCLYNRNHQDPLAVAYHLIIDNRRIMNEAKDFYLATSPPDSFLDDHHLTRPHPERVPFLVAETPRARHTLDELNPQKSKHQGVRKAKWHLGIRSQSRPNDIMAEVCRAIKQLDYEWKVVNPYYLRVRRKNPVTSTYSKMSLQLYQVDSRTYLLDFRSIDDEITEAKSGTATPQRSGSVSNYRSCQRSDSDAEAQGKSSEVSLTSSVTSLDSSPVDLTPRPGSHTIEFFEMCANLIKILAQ
Sequence of DNA dC->dU-editing enzyme APOBEC-3A (P31941 whole entry): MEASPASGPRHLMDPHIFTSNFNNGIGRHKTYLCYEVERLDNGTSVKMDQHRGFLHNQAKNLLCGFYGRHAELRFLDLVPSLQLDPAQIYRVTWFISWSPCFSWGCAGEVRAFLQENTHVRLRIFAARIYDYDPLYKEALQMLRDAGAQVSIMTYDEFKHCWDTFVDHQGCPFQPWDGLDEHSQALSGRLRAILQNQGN
Sequence of Serine/threonine-protein kinase pim-1 (P11309 whole entry): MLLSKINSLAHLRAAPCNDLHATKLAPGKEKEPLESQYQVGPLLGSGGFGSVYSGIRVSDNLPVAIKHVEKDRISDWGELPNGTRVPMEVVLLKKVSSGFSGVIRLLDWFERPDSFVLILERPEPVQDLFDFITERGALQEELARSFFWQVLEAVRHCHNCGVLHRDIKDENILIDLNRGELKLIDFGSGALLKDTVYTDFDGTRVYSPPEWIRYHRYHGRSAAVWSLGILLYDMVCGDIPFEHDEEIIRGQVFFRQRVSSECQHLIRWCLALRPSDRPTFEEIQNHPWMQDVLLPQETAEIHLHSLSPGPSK

Consider `O=C(Nc1cccc(C(F)(F)F)n1)Nc1ccnc2ccc(F)cc12`, for which the Ki is 79.4 nM (active) in experiment [1]; > 5.01 µM (inactive) in experiment [2]; > 3.98 µM (inactive) in experiment [3]; 100 nM (active) in experiment [4]; > 3.98 µM (inactive) in [5]; > 3.16 µM (inactive) in [6]. Moreover, the Ki in experiment [7] is > 6.31 µM (inactive); in experiment [8], 1.58 µM (active); in experiment [9] it was > 3.98 µM (inactive); in [10] it was > 3.98 µM (inactive); in experiment [11] it was 2 µM (active); in experiment [12] it was 3.16 µM (active). Besides, the Ki in [13] was > 3.16 µM (inactive); in experiment [14], > 3.98 µM (inactive); in experiment [15], > 3.16 µM (inactive); in experiment [16], > 3.16 µM (inactive); in experiment [17] it was > 2.51 µM (inactive); in experiment [18], > 3.16 µM (inactive). In addition, the Ki in experiment [19] was > 6.31 µM (inactive); in experiment [20], > 3.98 µM (inactive); in experiment [21], > 3.16 µM (inactive); in experiment [22], > 2.51 µM (inactive); in [23], > 5.01 µM (inactive); in [24], > 3.16 µM (inactive). The Ki is > 5.01 µM (inactive) in experiment [25]; > 3.16 µM (inactive) in experiment [26]; > 6.31 µM (inactive) in experiment [27]; > 3.98 µM (inactive) in experiment [28]; > 3.98 µM (inactive) in [29]; > 2.51 µM (inactive) in experiment [30]. The Ki is > 2 µM (inactive) in [31] and > 2.51 µM (inactive) in [32].
`CCCn1c(=O)c2ccccc2n2c(SC)nnc12`: the IC50 in [33] and in [34] was > 99 µM (inactive) in each case.
For `Cc1cccc(N2CCN(C(=O)c3ccc(CNc4c(N5CCC(C)CC5)c(=O)c4=O)cc3)CC2)c1C`, the CC50 in experiment [35] was 8.21 µM (active); in experiment [37], > 15 µM (active); in [38] it was > 30 µM (active). Further, the IC50 in [36] is > 25 µM (active).
Consider `N#CC(c1ccc2c(c1)OCO2)c1c(Cl)cnn(Cc2cccc3ccccc23)c1=O` (stereo not drawn), for which the IC50 in experiment [39] and in experiment [40] was 410 nM (active) in each case.
Consider `Clc1ccc(CSc2nnc(-c3ccncc3)o2)c(Cl)c1`, for which the AC50 was 8.31 µM (active) in [41], 24 µM (active) in experiment [42] and 1.83 µM (active) in experiment [43].
